Values quoted from earlier work in US20210137911A1, “NOVEL CHRONOTHERAPY BASED ON CIRCADIAN RHYTHMS” (THE TRUSTEES OF THE UNIVERSITY OF PENNSYLVANIA, priority 2014, published 2021).
Read-outs that look alike come from different tables or passages of the source.

Details: cited from earlier work
[1] = half-life of therapeutic compound as listed in Table 1
[2] = half-life of top selling therapeutic compounds (Table 1)

Row | Compound | ½ Life [2] [h] | ½ Life (in vivo) [h] | other results
1 | CCC1=C(C)CN(C(=O)NCCc2ccc(S(=O)(=O)NC(=O)N[C@H]3CC[C@H](C)CC3)cc2)C1=O [Glimepiride] | – | – | ½ Life [1]: 5 h
2 | NCCCCCC(=O)O [Aminocaproic Acid] | 2 | – | –
3 | C[C@@]12CCCCC[C@@H](Cc3ccc(O)cc31)[C@@H]2N [Dezocine] | – | 2.2 | –
4 | CCOC(=O)[C@H](CCc1ccccc1)N[C@@H](C)C(=O)N1[C@H](C(=O)O)C[C@@H]2CCC[C@@H]21 [Ramipril, reference compound] | – | 2 | minimum reported half-life (see Table 1): 2 h
5 | CC(C)CC(N(C)C)C1(c2ccc(Cl)cc2)CCC1 (centres unmarked) [Sibutramine] | – | 1.1 | –
6 | COc1cc(NC(C)CCCN)c2ncccc2c1 (centres unmarked) [Primaquine] | – | – | ½ Life [1]: 3.7 h
7 | O=C(O)Cc1ccccc1Nc1c(Cl)cccc1Cl [Diclofenac] | – | 2 | –
8 | CC(=O)c1ccc(S(=O)(=O)NC(=O)NC2CCCCC2)cc1 [Acetohexamide] | 1.3 | – | –
9 | CCCCCCCCCCC[C@@H](C[C@@H]1OC(=O)[C@H]1CCCCCC)OC(=O)[C@H](CC(C)C)NC=O [Orlistat] | – | – | ½ Life [1]: 1 h
10 | Vitamin A | – | 1.9 | –
11 | CC(O)(P(=O)(O)O)P(=O)(O)O [Etidronic acid] | 1 | – | –
12 | CC(C)n1c(/C=C/C(O)CC(O)CC(=O)O)c(-c2ccc(F)cc2)c2ccccc21 (centres unmarked) [Fluvastatin, reference compound] | 3 | – | –
13 | O=C1CCC(N2C(=O)c3ccccc3C2=O)C(=O)N1 (centres unmarked) [Thalidomide] | – | 5 | –
14 | CCOc1cc(N)c([N+](=O)[O-])cc1C(=O)NC1CCN(CC2CC=CCC2)CC1 (centres unmarked) [Cinitapride] | 3 | – | –
15 | COCc1c(C(C)C)nc(C(C)C)c(/C=C/[C@@H](O)C[C@@H](O)CC(=O)O)c1-c1ccc(F)cc1 [Cerivastatin, reference compound] | 2 | – | half-life (see Table 1): less than three
16 | O=[N+]([O-])[O-].O=[N+]([O-])[O-].O=[N+]([O-])[O-].[Ga+3] [Gallium nitrate] | – | – | ½ Life [1]: 1 h
17 | O=C(Oc1ccccc1C(=O)O)c1ccccc1O [Salsalate] | – | 1 | –

Row | Compound | ½ Life [2] [h] | ½ Life (in vivo) [h] | other results
18 | Pentosan Polysulfate | – | 4.8 | –
19 | CCCC(=O)Nc1ccc(OCC(O)CNC(C)C)c(C(C)=O)c1 (centres unmarked) [Acebutolol] | 3 | – | –
20 | COc1cccc2c1C(=O)c1c(O)c3c(c(O)c1C2=O)C[C@@](O)(C(=O)CO)C[C@@H]3O[C@H]1C[C@H](N)[C@@H](O)[C@H](C)O1 [Epirubicin] | 3 | – | –
21 | Aldesleukin | – | 0.216 | –
22 | Insulin Detemir | – | 5 | –
23 | Nc1nc(=O)[nH]cc1F [Flucytosine] | 2.4 | – | –
24 | C[C@H]1C[C@H]2[C@@H]3CCC4=CC(=O)C=C[C@]4(C)[C@@]3(Cl)[C@@H](O)C[C@]2(C)[C@@]1(O)C(=O)CO [Beclomethasone] | – | 2.8 | –
25 | Nc1cc(N2CCCCC2)nc(N)[n+]1[O-] [Minoxidil] | – | 4.2 | –
26 | COc1ccc(CC2c3cc(OC)c(OC)cc3CC[N+]2(C)CCC(=O)OCCCCCOC(=O)CC[N+]2(C)CCc3cc(OC)c(OC)cc3C2Cc2ccc(OC)c(OC)c2)cc1OC (centres unmarked) [Atracurium] | 0.33 | – | –
27 | O=C(O)c1cc(/N=N/c2ccc(O)c(C(=O)O)c2)ccc1O [Olsalazine] | – | – | ½ Life [1]: 0.9 h
28 | COc1ccc2c3c1O[C@H]1C(=O)CC[C@@]4(O)[C@@H](C2)N(C)CC[C@]314 [Oxycodone] | – | – | ½ Life [1]: 4.5 h
29 | NCC(CC(=O)O)c1ccc(Cl)cc1 (centres unmarked) [Baclofen] | 2.5 | – | –
30 | CC(=O)O[C@H]1C[C@@H]2CC[C@@H]3[C@H](CC[C@@]4(C)[C@H]3C[C@H]([N+]3(C)CCCCC3)[C@@H]4OC(C)=O)[C@@]2(C)C[C@@H]1N1CCCCC1 [Vecuronium] | – | 0.85 | –
31 | CC[C@@]1(O)C(=O)OCc2c1cc1n(c2=O)Cc2cc3c(CN(C)C)c(O)ccc3nc2-1 [Topotecan] | – | 2 | –
32 | C#CC1(OC(N)=O)CCCCC1 [Ethinamate] | – | 2.5 | –
33 | Galsulfase | – | 0.15 | –
